# Measurements published in article PMC8562313, “Cytotoxicity of Amino‐BODIPY Modulated via Conjugation with 2‐Phenyl‐3‐Hydroxy‐4(1H)‐Quinolinones” (ChemistryOpen, 2021).
# Experiment: GSH-mediated cleavage monitored by LC/MS
# Assay type: physicochemical
# Conditions: 5 mM GSH, 5 μM conjugate 11 in HEPES buffer, 7.4 pH, 37 °C
# Excerpt: As reported previously, the GSH mediated cleavage of the disulfide linker results in the release of the 3‐HQ derivative together with the Amino‐BODIPY.[30] […] As the mechanism of GSH‐mediated cleavage and LC/MS analysis in Figure 2A and 2B depict nucleophilic thiol group on glutathione attacks the disulfide bond resulting in the formation of GSH adducts 19 and 20. Intermediate 19 further reacts with excess of GSH and self‐immolative linker is cyclized while free Amino‐BODIPY 16 is released.
# Figure 2 (A) Mechanism of GSH‐mediated cleavage of conjugate 11 (5 mM GSH, 5 μM conjugate 11 in HEPES buffer, 7.4 pH, 37 °C). (B) Time‐dependent stability of compounds 1, 11, 16, 19 and 20 monitored by LC/MS. (C) Excitation/emission spectra of the conjugate 11 and the released Amino‐BODIPY 16 enabling the OFF‐ON fluorescence effect when excitation at 485 nm and emission at 530 nm is applied.
compound,measurement,value
NC(=O)C(CSSC[C@H](NC(=O)CC[C@H](N)C(=O)O)C(=O)NCC(=O)O)NC(=O)c1ccc2c(=O)c(O)c(-c3ccccc3)[nH]c2c1 (stereo partly shown) [Compound 20],Stability of cleavage intermediate by LC/MS,relatively stable
